What was measured:
Assay in all cases: relative viability (nuclei count vs DMSO), 5 days (fraction); higher = more cells survive
[1] = compound: CC(O)(CS(=O)(=O)c1ccc(F)cc1)C(=O)Nc1ccc(C#N)c(C(F)(F)F)c1 [Bicalutamide] + N=C(N)NC(=N)NCCc1ccccc1 [Phenformin] (partner 250 µM)
Summary of the method: (§1)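 Relative viability is defined as nuclei in treated wells over nuclei in vehicle wells. Duplicate plates were run and medians reported. Lung cancer cell lines in 1536-well plates were dosed by pin tool one day after seeding, with one drug or with a fixed anchor-drug dose plus five library-drug doses (not always all listed) in √10 steps, and nuclei were counted after 5 days.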

Bicalutamide = compound: CC(O)(CS(=O)(=O)c1ccc(F)cc1)C(=O)Nc1ccc(C#N)c(C(F)(F)F)c1 [Bicalutamide]
Summary of the method: (§2)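 Viability here means nuclei in treated wells divided by nuclei in vehicle wells, reported as the median across plates. Only plates with control CV below 25% and at least one doubling passed. Lung cancer cell lines in 1536-well plates were exposed to five √10-spaced library-drug doses for 5 days and counted from 4× Hoechst images in MetaXpress.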

Bromopyruvate = compound: C(C(=O)C(=O)O)Br [Bromopyruvate]
Summary of the method: as §2

[2] = compound: C(C(=O)C(=O)O)Br [Bromopyruvate] + CC1(C)CCC(c2ccc(Cl)cc2)=C(CN2CCN(c3ccc(C(=O)NS(=O)(=O)c4ccc(N[C@H](CCN5CCOCC5)CSc5ccccc5)c(S(=O)(=O)C(F)(F)F)c4)cc3)CC2)C1 [Navitoclax] (partner 0.5 µM)
Summary of the method: as §1

Cell Line	relative viability ([1]; first compound 0.08 µM)	relative viability ([1]; first compound 0.253 µM)	relative viability ([1]; first compound 0.8 µM)	relative viability ([1]; first compound 2.53 µM)	relative viability (Bicalutamide; 0.08 µM)	relative viability (Bicalutamide; 0.253 µM)	relative viability (Bicalutamide; 0.8 µM)	relative viability (Bicalutamide; 2.53 µM)	relative viability (Bromopyruvate; 1 µM)	relative viability (Bromopyruvate; 3.162 µM)	relative viability (Bromopyruvate; 10 µM)	relative viability (Bromopyruvate; 31.62 µM)	relative viability (Bromopyruvate; 100 µM)	relative viability ([2]; first compound 1 µM)	relative viability ([2]; first compound 3.162 µM)	relative viability ([2]; first compound 10 µM)	relative viability ([2]; first compound 31.62 µM)	relative viability ([2]; first compound 100 µM)
NCI-H522	0.659	0.649	0.622	0.661	1.07	0.828	0.999	0.991	1.06	0.975	0.941	0.939	0.785	–	–	–	–	–
HCC-15	0.513	0.418	0.6	0.484	1.02	0.973	1.15	1	1.03	1.06	1.08	0.981	0.957	0.697	0.723	0.759	0.765	0.657
A-427	0.382	0.283	0.367	0.224	0.996	1.02	1.17	0.869	1.05	1.09	1.16	0.967	1.1	0.967	0.876	0.895	1.02	1.04
NCI-H23	0.851	0.694	0.883	0.765	1.02	0.9	1.08	0.812	1.01	1.19	0.979	0.909	0.931	0.855	0.807	0.983	0.768	0.77
NCI-H1734	0.41	0.338	0.458	0.416	0.991	0.886	1.14	0.926	0.971	1.02	1.15	1	0.979	0.76	0.799	0.975	0.809	0.886
NCI-H1993	0.437	0.51	0.434	0.447	0.896	0.811	0.987	0.996	0.833	1.01	1.1	0.945	0.951	1.02	0.96	0.925	1.09	0.901
PC-3 [JPC-3]	0.46	0.472	0.505	0.505	1.07	1.03	1.16	1.03	1.08	1.04	0.986	1.01	1.04	0.751	0.811	0.838	0.727	0.828
NCI-H1915	0.375	0.313	0.368	0.362	1.01	0.922	1.14	0.964	1.02	0.984	1	1.01	0.997	0.827	0.765	0.792	0.824	0.801
NCI-H1666	0.613	0.541	0.569	0.537	1.04	0.854	0.96	1.01	0.971	0.98	1.04	0.937	0.965	0.957	1.12	1.03	1.01	0.754
HCC-366	0.568	0.615	0.699	0.64	1.01	0.95	1.06	1.01	0.996	0.979	1.05	1.02	0.998	1.04	1.05	1.14	1.04	1.03
SK-MES-1	0.726	0.654	0.728	0.617	1.02	0.961	1.09	0.971	0.99	1.07	1.12	0.958	1.05	1.1	1.25	1.17	1.29	1.26
NCI-H727	0.618	–	0.734	0.821	1.02	0.807	1.13	1.05	0.959	1.19	1.09	1.08	1.03	0.469	0.526	0.401	0.425	0.509
RERF-LC-KJ	0.406	0.396	0.431	0.336	1.01	0.985	1.15	0.982	1.04	1.02	1.13	1.02	0.98	1.05	0.822	1.05	0.868	0.98
NCI-H1623	–	0.594	0.587	0.55	0.628	0.89	0.969	0.904	1.07	0.944	1.25	0.973	0.948	–	–	–	–	–
Calu-6	–	–	–	–	1.09	0.989	1.07	0.987	0.934	0.995	1.12	0.994	0.809	0.939	0.922	0.779	0.792	0.74
LC-2-ad	0.607	0.529	0.654	0.56	1.09	0.935	1.08	0.986	1.01	0.985	1.03	0.924	0.964	0.436	0.404	0.35	0.459	0.476
